The text below walks through data of PMC10680739 (bioRxiv, 2023).

Read-outs that look alike come from different tables or passages of the source.

For assay [1], the target named is T1, SBS Tad1 (Bacillus phage SBSphiJ7, UniProt P0DW57). Nature of the assay: biochemical. The assay is classed as binding, Bacillus cereus phage SBSphiJ7.
For a further assay, the system named is ColiTad1. It counts as binding, Colidexitribacter sp. OB.20. Particulars: native gel combined with ITC.
For another assay, the target named is CmTad1 (Clostridioides mangenotii, UniProt P0DW61). It counts as binding, Clostridioides mangenotii prophage. Particulars: for binding to CmTad1 in words: among the CDNs tested.
Sequence of CmTad1 (P0DW61 whole entry): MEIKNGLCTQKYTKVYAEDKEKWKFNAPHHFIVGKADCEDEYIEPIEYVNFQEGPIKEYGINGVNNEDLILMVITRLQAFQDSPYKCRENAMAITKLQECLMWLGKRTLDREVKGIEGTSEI
The next assay addresses SPO1 Tad2 (Bacillus phage SP01, UniProt B6V311). The assay is classed as binding, Bacillus cereus phage SPO1. The note with it: HPLC; 40 μM protein, 4 μM ligand.
Assay [2] has as its system HgmTad2. The assay is classed as binding, Bacteroides phages (human gut metagenomic libraries).
The test system of assay [3] is HgmTad2. It counts as binding, Bacteroides phages (human gut metagenomic libraries). Particulars: HPLC; HgmTad2 of State 1; 40 μM protein, 4 μM ligand.
Assay [4] has as its target T1, SBS Tad1. The assay is classed as binding, Bacillus cereus phage SBSphiJ7. The note with it: native gel combined with ITC.
The mark [5] stands for this setting: native PAGE, HgmTad2 of State 1.

T1 sequence (P0DW57 whole entry, looked up): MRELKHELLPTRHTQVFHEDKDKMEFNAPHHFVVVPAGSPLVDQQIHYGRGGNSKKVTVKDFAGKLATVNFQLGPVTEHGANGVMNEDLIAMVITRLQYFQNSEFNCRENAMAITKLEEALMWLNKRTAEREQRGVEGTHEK
Sequence of SPO1 Tad2 (B6V311 whole entry, looked up): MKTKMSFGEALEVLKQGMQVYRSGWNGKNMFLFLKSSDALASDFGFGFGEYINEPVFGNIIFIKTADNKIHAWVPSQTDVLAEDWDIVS

At SBS Tad1 [1], `Nc1nc2c(ncn2[C@@H]2O[C@@H]3COP(=O)(O)O[C@H]4[C@@H](O)[C@H](n5cnc6c(N)ncnc65)O[C@@H]4COP(=O)(O)O[C@H]3[C@H]2O)c(=O)[nH]1` [3',3'-cGAMP] registered a Kd of 48.7 nM. Further, the “binding affinity to ColiTad1 in words” value with ColiTad1 was “low affinity”. Further, at CmTad1, the “binding to CmTad1 in words” value is listed as “weak binding”. The “depletion of ligand after incubation with SPO1 Tad2” value on SPO1 Tad2 is “does not deplete”. Further, in the assay with HgmTad2 [2] (setting [5]), the “native gel shift of HgmTad2 upon adding ligand” value is given as “significant shift”. Further, the “depletion of ligand after incubation with HgmTad2” value in the assay with HgmTad2 [3] is “depletes”.
Consider `Nc1nc2c(ncn2[C@@H]2O[C@@H]3COP(=O)(O)O[C@H]4[C@@H](O)[C@H](n5cnc6c(N)ncnc65)O[C@@H]4COP(=O)(O)O[C@@H]2[C@@H]3O)c(=O)[nH]1` [2',3'-cGAMP], for which, in the assay with ColiTad1, the “binding affinity to ColiTad1 in words” value is given as “high affinity”.
For `Nc1nc2c(ncn2[C@@H]2O[C@@H]3COP(=O)(O)O[C@H]4[C@@H](O)[C@H](n5cnc6c(N)ncnc65)O[C@@H]4COP(=O)(O)O[C@H]4[C@@H](O)[C@H](n5cnc6c(N)ncnc65)O[C@@H]4COP(=O)(O)O[C@H]3[C@H]2O)c(=O)[nH]1` [cAAG], the “native gel shift of CmTad1 upon adding ligand” value at CmTad1 (native PAGE, protein 20 μM) was “shift”.
Take `Nc1nc2c(ncn2[C@@H]2O[C@@H]3COP(=O)(O)O[C@H]4[C@@H](O)[C@H](n5cnc6c(=O)[nH]c(N)nc65)O[C@@H]4COP(=O)(O)O[C@H]3[C@H]2O)c(=O)[nH]1` [cGG, 3’,3’-cyclic di-GMP]: the “native gel shift of HgmTad2 upon adding ligand” value in the assay with HgmTad2 [2] (setting [5]) was “significant shift”.
As to `Nc1nc2c(ncn2[C@@H]2O[C@@H]3COP(=O)(O)O[C@@H]4[C@H](O)[C@@H](COP(=O)(O)O[C@H]3[C@H]2O)O[C@H]4n2cnc3c(N)ncnc32)c(=O)[nH]1` [3',2'-cGAMP], the “binding affinity to ColiTad1 in words” value with ColiTad1 is recorded as “low affinity”. Also, the “binding affinity to SBS Tad1 in words” value at SBS Tad1 [4] is recorded as “low affinity”.
At SBS Tad1 [1], `Nc1ncnc2c1ncn2[C@@H]1O[C@@H]2COP(=O)(O)O[C@H]3[C@@H](O)[C@H](n4ccc(=O)[nH]c4=O)O[C@@H]3COP(=O)(O)O[C@H]2[C@H]1O` [cUA] registered a Kd of 53.9 nM. Moreover, the “binding to CmTad1 in words” value on CmTad1 is listed as “weak binding”.
As to `Nc1ncnc2c1ncn2[C@@H]1O[C@@H]2COP(=O)(O)OP(=O)(O)OC[C@H]3OC(O[C@@H]1[C@@H]2O)[C@H](O)[C@@H]3O` [1''-2' gcADPR], in the assay with HgmTad2 [2] (native gel, purified HgmTad2 in all the three states), the “native gel shift of HgmTad2 upon adding ligand” value is “shift”.
As for `Nc1nc2c(ncn2[C@@H]2O[C@@H]3COP(=O)(O)O[C@H]4[C@@H](O)[C@H](n5ccc(=O)[nH]c5=O)O[C@@H]4COP(=O)(O)O[C@H]3[C@H]2O)c(=O)[nH]1` [cUG], in the assay on HgmTad2 [2] (setting [5]), the “native gel shift of HgmTad2 upon adding ligand” value is listed as “significant shift”.
